According to patent US6458983B1, “Method for synthesizing complexes of platinum with iminoethers and their use as antitumoral drugs and nucleotide-base modifiers” (priority 1998, dated 2002):
Marks after values point to notes of the source that are not given here.

Tests used:
[1] = tested on: pulmonary carcinoma (Calu); assay: Inhibition of in vitro proliferation of human tumor cells, Calu; format: cell-based; settings: 72 hours treatment, cell number vs untreated control; read-out: Inhibitory concentrations (IC50) Calu
Description: (§1) The antitumoral activity of compounds having the formula trans-[PtCl2(NH3){Z-HN═C(OMe)Me}] (1) and trans-[PtCl2(NH3){E-HN═C(OMe)Me}] (2) was tested. Specifically, the antitumoral activity of compounds (1) and (2) was analyzed in experimental systems in vitro, testing for inhibition of the proliferation of human tumor cells in culture and in vivo by testing the increment in survival of mice carriers of P388 murine leukemia.
(§2) The inhibitory effect of compounds (1) and (2) on the in vitro proliferation of human tumor cells of ovarian carcinoma (A2780), pulmonary carcinoma (Calu), colon carcinoma (LoVo) and on an ovarian carcinoma line (A2780/cp8) with resistance to cisplatinum is presented in the following Table I.
(§3) Proliferation inhibition is expressed by means of IC50 values, which indicate the concentration of compound (μM) in the culture medium that determines a 50% reduction in the proliferation of the treated cells with respect to untreated cells.
(§4) The IC50 values were extrapolated from dose-response curves obtained by treating for 72 hours the tumor cells with various concentrations of the tested compounds dissolved in the culture medium and checking, at the end of the incubation period, the number of cells present in the treated samples with respect to the number of cells in the untreated samples (control).

colon carcinoma (LoVo) = assay: Inhibition of in vitro proliferation of human tumor cells, LoVo; format: cell-based; settings: 72 hours treatment, cell number vs untreated control; read-out: Inhibitory concentrations (IC50) Lo Vo
Description: as §1, §2, §3, §4

[2] = Body weight variation and toxicity in treated P388 carrier mice; format: in vivo; settings: at the end of the treatment
Description: (§5) ^a P388 leukemic cells (10^6/animal) were inoculated in the peritoneum in B6D2F1 female mice (body weight=18 g) on day 0; treatment with the platinum compounds, dissolved at the time of use in a physiological solution, was performed on days 1-7, administering IP the doses indicated in the table in a volume equal to 0.1 ml/10 g body weight.
^b Percentage variation of body weight of the animals at the end of the treatment.

[3] = tested on: ovarian carcinoma line (A2780/cp8) with resistance to cisplatinum; assay: Inhibition of in vitro proliferation of human tumor cells, A2780/cp8; format: cell-based; settings: 72 hours treatment, cisplatinum-resistant line; read-out: Inhibitory concentrations (IC50) A2780/cp8
Description: as §1, §2, §3, §4

[4] = tested on: ovarian carcinoma (A2780); assay: Inhibition of in vitro proliferation of human tumor cells, A2780; format: cell-based; settings: 72 hours treatment, cell number vs untreated control; read-out: Inhibitory concentrations (IC50) A2780
Description: as §1, §2, §3, §4

P388 murine leukaemia = assay: Antitumoral activity in vivo, survival of P388 murine leukemia carrier mice; design: species or system B6D2F1 female mice
Description: as §1
The antiumoral activity in vivo of compounds 1 and 2, expressed as an increment in the survival of P388 murine leukemia carrier mice, was also tested.
as §5
^c ILS=(average of the days of survival of treated mice/average of days of survival of untreated mice) X 100.

[5] = background statement; cited from earlier work
tumor cells = settings: cited from earlier work
[6] = tested on: solid and lymphoproliferative murine tumors; settings: background statement; cited from earlier work
[7] = 10 mg/kg IP daily, ILS = (average survival days treated/untreated) × 100
[8] = 15 mg/kg IP daily, ILS = (average survival days treated/untreated) × 100
[9] = 20 mg/kg IP daily, ILS calculated on 4 animals

Structure (SMILES) | IC50 [1] [µM] | IC50 (colon carcinoma (LoVo)) [µM] | Percentage variation of body weight ([2]; 10 mg/kg IP daily) [%] | Percentage variation of body weight ([2]; 15 mg/kg IP daily) [%] | Percentage variation of body weight ([2]; 20 mg/kg IP daily) [%] | IC50 [3] [µM] | IC50 [4] [µM] | ILS (P388 murine leukaemia; [7]) | ILS (P388 murine leukaemia; [8]) | ILS (P388 murine leukaemia; [9]) | antitumoral activity [5] | further results
COC(C)=N.N.[Cl][Pt][Cl] [Compound 1, trans-[PtCl2(NH3){Z-HN═C(OMe)Me}]] | 90 | 21 | −1.5 | −4.4 | −11.5 | 35 | 37 | 165 | 173 | 190^d |  | 
COC(C)=N.N.[Cl][Pt][Cl] [Compound 2, trans-[PtCl2(NH3){E-HN═C(OMe)Me}]] | 55 | 7 | −1.8 | −3.1 | −10 | 8.6 | 8.5 | 128 | 152 | 132^e |  | 
N.N.[Cl][Pt+2][Cl] [trans-DDP, trans-[PtCl2(NH3)2]] |  |  |  |  |  |  |  |  |  |  | no antitumoral activity | 
N.NC1CCCCC1.[OH][Pt]([OH])([Cl])[Cl] [trans-[PtCl2(OH)2(NH3){NH2(C6H11)}]] |  |  |  |  |  |  |  |  |  |  | antitumoral activity in vitro and in vivo | 
[Cl][Pt][Cl].c1ccncc1.c1ccncc1 [trans-[PtCl2(pyridine)2]] |  |  |  |  |  |  |  |  |  |  |  | cytotoxic effect in vitro against tumor cells (tumor cells): higher cytotoxic effect in vitro against tumor cells than trans-DDP
COC(C)=N.COC(C)=N.[Cl][Pt][Cl] [trans-[PtCl2{E-HN═C(OMe)Me}2]] |  |  |  |  |  |  |  |  |  |  |  | antitumoral activity in vivo [6]: antitumoral activity in vivo
